# Assay results: PubChem BioAssay (NCI)
#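 Protocol summary: plate cells (96-well), add compound at 5 concentrations, incubate 48 h, interpolate endpoints linearly. GI50 = concentration required for 50% inhibition of growth. The concentration for full growth arrest is given as TGI.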
# Tests used:
# Assay in all cases: NCI tumour cell line growth inhibition, 48 h
# [1] = system: RXF-631 renal
# [2] = system: KM20L2 colon
# [3] = system: DLD-1 colon
# [4] = system: XF 498 CNS
# [5] = system: SNB-78 CNS
# [6] = system: HOP-18 NSCLC
# [7] = system: SN12C renal
# [8] = system: NCI-H460 lung
# [9] = system: DMS 273 small cell lung
# [10] = system: LXFL 529 NSCLC
# [11] = system: M19-MEL melanoma
# [12] = system: DMS 114 small cell lung
# [13] = system: P388/ADR leukemia
# [14] = system: SN12K1 renal
# [15] = system: P388 leukemia
# [16] = system: BT-549 breast
SMILES,TGI [2] [µM],TGI [3] [µM],TGI [5] [µM],TGI [7] [µM],TGI [8] [µM],TGI [9] [µM],TGI [11] [µM],TGI [12] [µM],TGI [16] [µM],further results
O=c1[nH]c(=O)n(C2OC(CO)C(O)C2O)cc1NN=NCc1ccccc1 (configuration not stated),> 100,> 77.4,> 100,> 100,> 100,> 100,> 100,99.1,,TGI [1]: > 100 µM; TGI [4]: > 100 µM; TGI [6]: > 100 µM; TGI [10]: > 100 µM
CC(=O)N(C)c1ccc(Nc2cc(C)[nH]c3ccc4ncnc4c23)cc1,37.2,74.2,53.6,34.9,12.3,24.3,20.1,20.4,24.5,TGI [13]: 228 µM; TGI [4]: 5.92 µM; TGI [14]: 16.6 µM; TGI [6]: 53.1 µM; TGI [15]: 49.2 µM
O=c1[nH]c2c(nc1NC13CC4CC(CC(C4)C1)C3)c(=O)oc1ccccc12,> 100,> 100,,> 100,> 100,> 100,> 100,> 100,,TGI [4]: > 100 µM; TGI [10]: > 100 µM
CCOC(=O)C1(C#N)C(c2ccccc2)CC(O)(c2ccc(OC)cc2)C(C(=O)c2ccc(OC)cc2)C1c1ccccc1 (configuration not stated),> 100,> 100,> 100,> 100,> 100,> 100,> 100,> 100,,TGI [6]: > 100 µM; TGI [10]: > 100 µM
CCN(CC)CC1CCCCCCCCCCC1=O (configuration not stated),> 100,> 100,> 100,> 100,> 100,> 100,> 100,> 100,,TGI [4]: > 100 µM; TGI [10]: > 100 µM
CC1(C)CC(=O)c2[nH]c3ccccc3c2CC(=O)NCCc2cn1cn2,,,,> 100,> 100,,,,> 100,
Cc1cc(N)c(C)c2c1[nH]c1ccc(O)cc12,,,> 100,> 100,> 100,> 100,> 100,,,TGI [4]: > 100 µM; TGI [6]: > 100 µM
Cc1cc2c(cc1Cl)SC(NS(=O)(=O)c1ccc(Cl)cc1)=NS2(=O)=O,,,,> 100,> 100,,,,> 100,
CC(=O)O[C@H]1C[C@H]2[C@@H](OC(C)=O)/C=C3\C[C@](C)(C(=O)[C@H](O)C(=C1C)C2(C)C)[C@@H](O)C[C@@H]3OC(=O)[C@H](O)[C@H](c1ccccc1)N(C)C,,,,> 100,> 100,,,,> 100,
C[N+](CCCl)(CCCl)Cc1cccc2cccc([N+](=O)[O-])c12,,,,> 100,> 100,,,,> 100,
Oc1cn(-c2ccc(Cl)cc2)nc1-c1nnc(-c2ccccc2)o1,,,,> 57,13.8,,,,> 91.9,GI50 [16]: 4.24 µM
Cc1c([N+](=O)[O-])ccc2c(NCCCN(C)C)ccnc12,,,,> 100,33.2,,,,36.2,
CNc1ccc(C(=O)CC(O)CCC(C)C2OC(=O)CC(O)CC(=O)CC(O)CC(O)CC(O)CC(O)CC3(O)CC(O)C(C(=O)NCCN(C)C)C(CC(OC4OC(C)C(O)C(NC(=O)CN5CCN(C)CC5)C4O)/C=C/C=C/C=C/C=C\C=C/C=C/C=C/C2C)O3)cc1 (configuration not stated),,,,> 100,> 100,,,,> 100,
C=C1C(=O)C[C@H]2C(=C)C(=O)O[C@@H]2C2C1CC[C@@]2(C)O (some centres not stated),,,,> 100,43.1,,,,44,
N=C1/C(=C/c2ccc(F)cc2)C(=O)N=C2SC=NN12,,,,> 100,> 100,,,,> 100,
COc1cc(OC)c(-c2ccc(OCc3ccccc3)c3c(OC)cc(C)cc23)c2c1C(C)=N[C@H](C)C2,,,,3.74,3.84,,,,7.93,
CCc1cc2c(oc3cc4ccccc4cc32)c(=O)[nH]1,,,,> 10,> 10,,,,> 10,
CCCN=C(N)NC#N,> 100,> 100,> 100,> 100,> 100,> 100,> 100,35.8,,TGI [6]: > 100 µM; TGI [10]: > 100 µM
CCOC(=O)c1c(-c2ccc(OC)cc2)c(C#N)c(=S)n(C2OC(COC(C)=O)C(OC(C)=O)C(OC(C)=O)C2OC(C)=O)c1-c1ccccc1 (configuration not stated),,,,> 100,> 100,,,,> 100,
O=c1cc(N2CCOCC2)[nH]c(=O)n1-c1ccc(F)cc1,,,,> 100,> 100,,,,> 100,
